Our source for the TGI and GI50 values is PubChem BioAssay (NCI).

Each structure is given as a SMILES string. Values joined by “and” are separate entries in the source; they are usually repeats but may differ in a detail not shown here. Equal entries are not always repeated.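 Grown in 96-well plates, cells were treated for 48 hours with each compound at five concentrations. Insufficient inhibition: endpoint recorded as highest concentration tested. At the GI50, growth is halved. TGI: concentration producing complete growth inhibition.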

Some test systems named below: 786-0 renal; A498 renal; COLO 205 colon; HCC-2998 colon; LOX IMVI melanoma; M14 melanoma; NCI-H460 lung; NCI/ADR-RES ovarian; SF-539 CNS; SW-620 colon.
Common to all, as to test: NCI-60 cell line screen, 48 h

On to `CC(C)OC(=O)NNc1c(Cl)cc(Cl)cc1Cl`, for which the TGI with 786-0 renal, with A498 renal, in the test with COLO 205 colon, in the test with HCC-2998 colon, in the test with LOX IMVI melanoma and in the test on M14 melanoma was > 100 µM in each case. The TGI in the test with NCI-H460 lung, in the test on NCI/ADR-RES ovarian, in the test with SF-539 CNS and with SW-620 colon was > 100 µM in each case.
Regarding `CCn1cnc(C[C@H](NC(=O)[C@@H](NC(=O)Nc2cc(C(F)(F)F)cc(C(F)(F)F)c2)C(C)(C)C)C(=O)OC)c1`, the GI50 in the test with 786-0 renal, in the test with A498 renal, in the test with COLO 205 colon, with HCC-2998 colon, in the test with LOX IMVI melanoma and in the test on M14 melanoma was > 10 µM in each case. Besides, the GI50 in the test on NCI-H460 lung, in the test on NCI/ADR-RES ovarian, with SF-539 CNS and in the test with SW-620 colon was > 10 µM in each case. For the same compound, the TGI in the test with 786-0 renal, in the test with A498 renal, with COLO 205 colon, with HCC-2998 colon, in the test on LOX IMVI melanoma and in the test on M14 melanoma was > 10 µM each time. For the same compound, the TGI in the test on NCI-H460 lung, with NCI/ADR-RES ovarian, with SF-539 CNS and with SW-620 colon was > 10 µM each time.
Consider `COc1ccc(/C(=N/O)c2cc(F)c(F)c(OC)c2F)cc1O`, for which the GI50 was 10.5 µM in the test on 786-0 renal; 3.79 µM in the test with A498 renal; 5.46 µM in the test with COLO 205 colon; 2.01 µM with HCC-2998 colon; 0.605 µM in the test with LOX IMVI melanoma; 0.344 µM in the test with M14 melanoma. In addition, the GI50 in the test on NCI-H460 lung is 0.402 µM; in the test on NCI/ADR-RES ovarian, 0.309 µM; in the test with SF-539 CNS it was 0.427 µM; in the test on SW-620 colon, 0.435 µM. The TGI with 786-0 renal was > 100 µM; in the test with A498 renal, > 100 µM; in the test with COLO 205 colon it was 25.6 µM; in the test with HCC-2998 colon, > 100 µM; with LOX IMVI melanoma, > 100 µM; in the test with M14 melanoma, > 100 µM. Also, the TGI was > 100 µM in the test with NCI-H460 lung, 19.1 µM in the test on NCI/ADR-RES ovarian, 5.27 µM in the test with SF-539 CNS and > 100 µM with SW-620 colon.
As for `COc1cccc(/C=C2\COc3ccc(O)c(O)c3C2=O)c1OC`, the GI50 is 1.89 µM in the test with 786-0 renal; 4.01 µM in the test on A498 renal; 3.01 µM with COLO 205 colon; 1.99 µM with HCC-2998 colon; 1.53 µM with LOX IMVI melanoma; 2.56 µM in the test on M14 melanoma. Also, the GI50 with NCI-H460 lung is 2.34 µM; with NCI/ADR-RES ovarian, 3.48 µM; in the test on SF-539 CNS, 2.07 µM; in the test with SW-620 colon it was 2.1 µM. The TGI is 5.62 µM in the test on 786-0 renal; 13.9 µM in the test with A498 renal; 8.38 µM in the test with COLO 205 colon; 3.96 µM in the test on HCC-2998 colon; 3.08 µM with LOX IMVI melanoma; 9.3 µM with M14 melanoma. Also, the TGI in the test with NCI-H460 lung came out at 7.12 µM; in the test on NCI/ADR-RES ovarian it was 97.2 µM; in the test with SF-539 CNS it was 4.77 µM; in the test on SW-620 colon, 5.44 µM.
With `O=C(Nc1ccc(Br)cc1)c1cc(Br)ccc1O`, the GI50 was 0.504 µM and 1.4 µM in the test with 786-0 renal; 0.219 µM and 0.358 µM in the test with A498 renal; 1.66 µM and 1.71 µM in the test with COLO 205 colon; 2.36 µM and 3.46 µM in the test with HCC-2998 colon; 0.549 µM and 1.09 µM in the test on LOX IMVI melanoma; 1 µM and 2.13 µM in the test with M14 melanoma. Further, the GI50 in the test with NCI-H460 lung is 0.389 µM and 0.617 µM; with NCI/ADR-RES ovarian, 0.523 µM and 1.16 µM; with SF-539 CNS, 0.647 µM and 0.7 µM; in the test with SW-620 colon, 0.986 µM and 2 µM. Also, the TGI in the test with 786-0 renal was 2.84 µM and 4.74 µM; with A498 renal, 0.841 µM and 1.82 µM; in the test on COLO 205 colon, 3.1 µM and 3.25 µM; in the test with HCC-2998 colon, 7.67 µM and 35.7 µM; in the test on LOX IMVI melanoma, 4.46 µM and 4.42 µM; in the test with M14 melanoma, 7.07 µM and 18.2 µM. Also, the TGI with NCI-H460 lung is 4.96 µM and 10.7 µM; in the test on NCI/ADR-RES ovarian it was 8.28 µM; in the test on SF-539 CNS it was 13 µM and 10.1 µM; in the test with SW-620 colon, 8.61 µM and 6.87 µM.
As for `O=C1c2ccccc2-n2c1nc1ccc([N+](=O)[O-])cc1c2=O`, the TGI is > 100 µM in the test on 786-0 renal; 35.5 µM in the test on A498 renal; > 100 µM in the test on COLO 205 colon; > 100 µM with HCC-2998 colon; 51.7 µM with LOX IMVI melanoma; > 100 µM with M14 melanoma. The TGI in the test with NCI-H460 lung, in the test with NCI/ADR-RES ovarian, with SF-539 CNS and in the test on SW-620 colon was > 100 µM each time.
Consider `Nc1ncnc2occ(-c3ccc(NC(=O)Nc4cccc(C(F)(F)F)c4)cc3)c12`, for which the GI50 with 786-0 renal is 4.46 µM; with A498 renal, 0.422 µM; in the test with COLO 205 colon, 4.53 µM; in the test on HCC-2998 colon it was 6.11 µM; in the test on LOX IMVI melanoma it was 2.57 µM; in the test on M14 melanoma, 3.2 µM. In addition, the GI50 is 3.46 µM in the test on NCI-H460 lung, 4.51 µM in the test on NCI/ADR-RES ovarian, 0.702 µM with SF-539 CNS and 6.77 µM in the test on SW-620 colon. The TGI was determined as 10 µM with 786-0 renal; 3.22 µM in the test on A498 renal; 9.16 µM in the test with COLO 205 colon; 14.3 µM with HCC-2998 colon; 12.1 µM with LOX IMVI melanoma; 9.19 µM in the test with M14 melanoma. Besides, the TGI in the test on NCI-H460 lung stood at 9.3 µM; with NCI/ADR-RES ovarian, 16.2 µM; in the test with SF-539 CNS it was 7.1 µM; in the test with SW-620 colon it was 20.2 µM.
For `O=C(NCCc1nccs1)c1cnc2c(S)cccc2c1`, the GI50 was 5.33 µM with 786-0 renal; 4.59 µM in the test on A498 renal; 1.56 µM in the test on COLO 205 colon; 10.5 µM in the test with HCC-2998 colon; 2.35 µM with LOX IMVI melanoma; 3.5 µM in the test with M14 melanoma. Besides, the GI50 was 0.685 µM with NCI-H460 lung, 2.97 µM with NCI/ADR-RES ovarian, 4.17 µM in the test with SF-539 CNS and 3.62 µM with SW-620 colon. The TGI in the test with 786-0 renal worked out at 36 µM; with A498 renal, 16.7 µM; in the test with COLO 205 colon it was 3.75 µM; in the test with HCC-2998 colon, 29.1 µM; with LOX IMVI melanoma, 92.8 µM; with M14 melanoma, 38.6 µM. Moreover, the TGI in the test on NCI-H460 lung is 11.4 µM; with NCI/ADR-RES ovarian it was > 100 µM; with SF-539 CNS it was 42.7 µM; with SW-620 colon, 28.7 µM.
